Data published in PubChem BioAssay AID1195 (EPA DSSTox, 2008).

System: human maximum recommended daily dose, FDA database
Experiment: DSSTox (FDAMDD) FDA Maximum (Recommended) Daily Dose Database
Settings: stronger effect = lower value
From the text: The Food and Drug Administration (FDA) Center for Drug Evaluation and Research, Office of Pharmaceutical Science, Informatics and Computational Safety Analysis Staff's Maximum Recommended Daily Dose (FDAMDD) database contains values for over 1200 pharmaceuticals listed in Martindale: The Extra Pharmacopoeia (1973, 1983, and 1993) and The Physicians' Desk Reference (1995 and 1999). Some classes of chemicals were excluded from the FDAMDD database due to their unsuitability for most QSAR modeling programs. These were inorganic chemicals, high molecular weight polymers (>5000 Daltons), fibers, salts, mixtures of organic chemicals, and small molecules (<100 Daltons). FDAMDD is the non-proprietary portion of the database that was used in the QSAR analysis reported in the Main Citation. DSSTox FDAMDD has fewer substance records than the original MRDD Source database due to consolidation of partial structures (i.e., complexed entities) into a single record and elimination of duplicate entries. DSSTox FDAMDD also differs from the MRDD Source database in presenting complete structural information pertaining to the actual salt or complexed form corresponding to the listed ChemicalName and CASRN. According to the Source authors, there are a number of cases where multiple related forms or derivatives of a drug were listed as separate records but were assumed to fall under the same clinical toxicity assessment and, therefore, assigned the same Dose_MRDD_mg activity value. For the DSSTox FDAMDD, we have labeled these derivatives in the ChemClass_MRDD_grouping field and provide their counts in the ChemicalReplicateCount field to highlight their special nature.
Maximum recommended daily dose (or maximum recommended therapeutic dose) values were determined from pharmaceutical clinical trials that employed an oral route of exposure and daily treatments, usually for 3-12 months. Drugs were given as single or divided dose treatment regimens to achieve desired pharmacological effects. Roughly 5% of the pharmaceuticals in the FDAMDD data file were antineoplastics and anesthetics and were administered intravenously and/or intramuscularly. When separate MRDDs were reported for different routes of exposure, only the oral MRDD was included in the data file and only MRDD values reported for the average adult patient were used. Pharmaceuticals that are administered orally are usually tested over a limited range of doses and have MRDDs reported as mg/day. The mg/day unit was converted to mg/kg-body weight (bw)/day based upon an average adult weighing 60 kg. In contrast, the dose unit for most antineoplastic drug MRDDs is reported as mg/m2 which was converted to mg/kg-bw/day using the formula mg/kg-bw/day = mg/m2/37 for an average adult. Additionally, a few drugs had MRDDs reported in parts per million (ppm) which were converted to mg/kg-bw/day on the basis that 1000 ppm equals 25 mg/kg-bw/day for an average 60 kg adult. Activity Score is mapping of LOG10(1/Dose_MRDD_mmol) spanning activity range [MIN, MAX] onto Integer 1-100 Activity range, where 100 is highest potency and 1 is lowest potency: ActivityScore = 100 * INTEGER[(LOGINV_MRDD_mmol - MIN)/(MAX […] MIN)]. Activity Outcome is "active" for all substances, since Dose_MRDD_mmol is reported for all substances.

[1] = TherapeuticCategory: antibacterial
[2] = TherapeuticCategory: peripheral vasodilator
[3] = TherapeuticCategory: anticholinergic
[4] = TherapeuticCategory: antihistaminic
[5] = TherapeuticCategory: glucocorticoid
[6] = TherapeuticCategory: antiulcerative
[7] = TherapeuticCategory: diagnostic aid
[8] = TherapeuticCategory: vasodilator
[9] = TherapeuticCategory: antidepressant
[10] = TherapeuticCategory: analgesic, antipyretic, anti inflammatory

CC(=O)OCC1=C(C(=O)O)N2C(=O)[C@@H](NC(=O)[C@H](N)c3ccccc3)[C@H]2SC1
maximum recommended daily dose (mmol/kg-bw/day) [1]: 0.0821

CCCCN(CCCC)CCNc1nc(-c2ccccc2)no1
maximum recommended daily dose (mmol/kg-bw/day) [2]: 0.0126

COC(=O)C(c1ccccc1)C1CCCCN1 (stereo not given)
maximum recommended daily dose (mmol/kg-bw/day) (TherapeuticCategory: CNS stimulant): 0.00429

CN1C(=O)CN=C(c2ccccc2)c2cc(Cl)ccc21
maximum recommended daily dose (mmol/kg-bw/day) (TherapeuticCategory: anxiolytic, skeletal muscle relaxant): 0.00234

CCCC(CCC)C(=O)OC1C[C@H]2CC[C@@H](C1)[N+]2(C)C (stereo not given in full)
maximum recommended daily dose (mmol/kg-bw/day) [3]: 0.0069

C[N+]12CCC(CC1)C(OC(=O)C(O)(c1ccccc1)c1ccccc1)C2 (stereo not given)
maximum recommended daily dose (mmol/kg-bw/day) [3]: 0.00077

COc1ccc(CN(CCN(C)C)c2ccccn2)cc1
maximum recommended daily dose (mmol/kg-bw/day) [4]: 0.00438

CCN(CC)CCOC(=O)C1(C2CCCCC2)CCCCC1
maximum recommended daily dose (mmol/kg-bw/day) [3]: 0.0043

CC(C)N=c1cc2n(-c3ccc(Cl)cc3)c3ccccc3nc-2cc1Nc1ccc(Cl)cc1
maximum recommended daily dose (mmol/kg-bw/day) [1]: 0.00703

CC(C)(O)C(C)(O)c1ccc(Cl)cc1 (stereo not given)
maximum recommended daily dose (mmol/kg-bw/day) (TherapeuticCategory: anxiolytic, anticonvulsant): 0.0932

CCOC(=O)/C=C(C)/C=C/C=C(C)/C=C/c1c(C)cc(OC)c(C)c1C
maximum recommended daily dose (mmol/kg-bw/day) (TherapeuticCategory: antipsoriatic): 0.00423

CCOc1ccc2ccccc2c1C(=O)N[C@@H]1C(=O)N2[C@@H]1SC(C)(C)[C@@H]2C(=O)O
maximum recommended daily dose (mmol/kg-bw/day) [1]: 0.241

CC(=O)NS(=O)(=O)c1cc(N)ccc1S(=O)(=O)c1ccc(N)cc1
maximum recommended daily dose (mmol/kg-bw/day) [1]: 0.17

CC[C@H](OC(C)=O)C(C[C@H](C)N(C)C)(c1ccccc1)c1ccccc1
maximum recommended daily dose (mmol/kg-bw/day) (TherapeuticCategory: treatment of narcotic addiction): 0.0113

C[N+]1(C)CCC(=C(c2ccccc2)c2ccccc2)CC1
maximum recommended daily dose (mmol/kg-bw/day) [3]: 0.0341

CCC(=O)O[C@]1(C(=O)COC(C)=O)CC[C@H]2[C@@H]3C[C@H](C)C4=CC(=O)C=C[C@]4(C)[C@H]3[C@@H](O)C[C@@]21C
maximum recommended daily dose (mmol/kg-bw/day) [5]: 0.00882

CCCCNC(=O)NS(=O)(=O)c1ccc(C)cc1
maximum recommended daily dose (mmol/kg-bw/day) (TherapeuticCategory: hypoglycemic agent): 0.123

NC(=O)CS(=O)C(c1ccccc1)c1ccccc1 (stereo not given)
maximum recommended daily dose (mmol/kg-bw/day) (TherapeuticCategory: CNS stimulant, adrenergic): 0.0122

C=CCN1CC[C@]23c4c5ccc(O)c4O[C@H]2C(=O)CC[C@@]3(O)[C@H]1C5
maximum recommended daily dose (mmol/kg-bw/day) (TherapeuticCategory: narcotic antagonist): 0.000305

Clc1ccc(C/C(=C\CN2CCCC2)c2ccccc2)cc1
maximum recommended daily dose (mmol/kg-bw/day) [4]: 0.00481

CC(C)=CCOc1ccc(/C=C/C(=O)c2ccc(OCC=C(C)C)cc2OCC(=O)O)cc1
maximum recommended daily dose (mmol/kg-bw/day) [6]: 0.0111

COc1cc(C(=O)N2CCOCC2)cc(OC)c1OC
maximum recommended daily dose (mmol/kg-bw/day) (TherapeuticCategory: sedative): 0.178

CC(C)Nc1cccnc1N1CCN(C(=O)c2cc3cc(NS(C)(=O)=O)ccc3[nH]2)CC1
maximum recommended daily dose (mmol/kg-bw/day) (TherapeuticCategory: antiviral): 0.0146

CN1[C@@H]2CC(OC(=O)[C@H](CO)c3ccccc3)C[C@H]1[C@@H]1O[C@@H]12 (stereo not given in full)
maximum recommended daily dose (mmol/kg-bw/day) [3]: 1.09e-06

CC(CN1CC(=O)NC(=O)C1)N1CC(=O)NC(=O)C1 (stereo not given)
maximum recommended daily dose (mmol/kg-bw/day) (TherapeuticCategory: antineoplastic): 0.0155

CCC(=O)C(CC(C)N(C)C)(c1ccccc1)c1ccccc1 (stereo not given)
maximum recommended daily dose (mmol/kg-bw/day) (TherapeuticCategory: narcotic analgesic): 0.00162

CN1C(=O)OC(C)(C)C1=O
maximum recommended daily dose (mmol/kg-bw/day) (TherapeuticCategory: anticonvulsant): 0.279

CC(=O)OCC(=O)[C@@]1(O)CC[C@H]2[C@@H]3C[C@H](C)C4=CC(=O)C=C[C@]4(C)[C@H]3[C@@H](O)C[C@@]21C
maximum recommended daily dose (mmol/kg-bw/day) [5]: 0.01

C[C@]12C=CC(=O)C=C1CC[C@@H]1[C@@H]2[C@@H](O)C[C@@]2(C)[C@H]1CC[C@]2(O)C(=O)COC(=O)CCC(=O)O
maximum recommended daily dose (mmol/kg-bw/day) [5]: 0.0069

CN(C)CCC(c1ccccc1)c1ccccn1 (stereo not given)
maximum recommended daily dose (mmol/kg-bw/day) (TherapeuticCategory: antihistaminic, antipruritic): 0.0026

COCC(=O)Nc1c(I)c(C(=O)NCC(O)CO)c(I)c(C(=O)N(C)CC(O)CO)c1I (stereo not given)
maximum recommended daily dose (mmol/kg-bw/day) [7]: 0.126

CC(CC(C)(C)O)OC(O)C(Cl)(Cl)Cl (stereo not given)
maximum recommended daily dose (mmol/kg-bw/day) (TherapeuticCategory: hypnotic): 0.101

Cc1c(C)c2c(c(C)c1O)CCC(C)(COc1ccc(CC3SC(=O)NC3=O)cc1)O2 (stereo not given)
maximum recommended daily dose (mmol/kg-bw/day) (TherapeuticCategory: antidiabetic): 0.0226

O=C(O)C1CCc2cc(C3CCCCC3)c(Cl)cc21 (stereo not given)
maximum recommended daily dose (mmol/kg-bw/day) (TherapeuticCategory: anti inflammatory, antipyretic): 0.00269

COC1=CC(=O)C[C@@H](C)[C@]12Oc1c(Cl)c(OC)cc(OC)c1C2=O
maximum recommended daily dose (mmol/kg-bw/day) (TherapeuticCategory: antifungal): 0.0354

CN(C)CCCOC1(Cc2ccccc2)CCCCCC1
maximum recommended daily dose (mmol/kg-bw/day) [8]: 0.0345

CCOC(=O)CCC(=O)O[C@H]1[C@H](O[C@@H]2[C@@H](C)[C@H](O[C@H]3C[C@@](C)(OC)[C@@H](O)[C@H](C)O3)[C@@H](C)C(=O)O[C@H](CC)[C@@](C)(O)[C@H](O)[C@@H](C)C(=O)[C@H](C)C[C@@]2(C)O)O[C@H](C)C[C@@H]1N(C)C
maximum recommended daily dose (mmol/kg-bw/day) [1]: 0.0774

CCOC(=O)Nc1ccc2c(c1)N(C(=O)CCN1CCOCC1)c1ccccc1S2
maximum recommended daily dose (mmol/kg-bw/day) (TherapeuticCategory: antiarrhythmic): 0.0351

CCN1CCCC1CNC(=O)c1cc(S(=O)(=O)CC)ccc1OC (stereo not given)
maximum recommended daily dose (mmol/kg-bw/day) [9]: 0.0564

C#CC(O)(/C=C\Cl)CC (stereo not given)
maximum recommended daily dose (mmol/kg-bw/day) (TherapeuticCategory: sedative, hypnotic): 0.115

CC(=O)OCC1=C(C(=O)O)N2C(=O)[C@@H](NC(=O)CSc3ccncc3)[C@H]2SC1
maximum recommended daily dose (mmol/kg-bw/day) [1]: 0.236

Cn1c(=O)c2c(ncn2CCO)n(C)c1=O
maximum recommended daily dose (mmol/kg-bw/day) (TherapeuticCategory: bronchodilator): 0.0372

CC(C)(C)NCC(O)COc1cccc2c1CCCC2=O (stereo not given)
maximum recommended daily dose (mmol/kg-bw/day) (TherapeuticCategory: antiglaucoma): 0.000858

CC(O)(P(=O)(O)O)P(=O)(O)O
maximum recommended daily dose (mmol/kg-bw/day) (TherapeuticCategory: calcium regulator): 0.0971

CCOC(=O)c1c(N)sc2c1CCN(Cc1ccccc1)C2
maximum recommended daily dose (mmol/kg-bw/day) [10]: 0.0158

CC(=O)Nc1c(I)c(C(=O)N[C@H]2C(O)O[C@H](CO)[C@@H](O)[C@@H]2O)c(I)c(N(C)C(C)=O)c1I (stereo not given in full)
maximum recommended daily dose (mmol/kg-bw/day) [7]: 0.132

CC(=O)O[C@H]1C[C@@]2(C)[C@@H](C[C@@H](O)[C@H]3[C@@]4(C)CC[C@@H](O)[C@@H](C)[C@@H]4CC[C@@]32C)/C1=C(\CCC=C(C)C)C(=O)O
maximum recommended daily dose (mmol/kg-bw/day) [1]: 0.0484

CN(CCO)CC(O)Cn1cnc2c1c(=O)n(C)c(=O)n2C (stereo not given) (tested in a mixture with another compound)
maximum recommended daily dose (mmol/kg-bw/day) [2]: 0.0575

CC(=O)Oc1ccccc1C(=O)O
maximum recommended daily dose (mmol/kg-bw/day) [10]: 0.37

CC1(C)[C@@H](OC(=O)CCC(=O)O)CC[C@]2(C)[C@H]3C(=O)C=C4[C@@H]5C[C@@](C)(C(=O)O)CC[C@]5(C)CC[C@@]4(C)[C@]3(C)CC[C@@H]12
maximum recommended daily dose (mmol/kg-bw/day) [6]: 0.00876

CC(C)(C)NCC(O)COc1ccccc1C#N (stereo not given)
maximum recommended daily dose (mmol/kg-bw/day) (TherapeuticCategory: antihypertensive, antianginal, antiarrhythmic): 0.00269

CCCC(C)(COC(N)=O)COC(N)=O
maximum recommended daily dose (mmol/kg-bw/day) (TherapeuticCategory: anxiolytic): 0.183

CN[C@H]1CC[C@@H](c2ccc(Cl)c(Cl)c2)c2ccccc21
maximum recommended daily dose (mmol/kg-bw/day) [9]: 0.0109

C[C@H](CCC(=O)O)[C@H]1CC[C@H]2[C@@H]3[C@@H](O)C[C@@H]4C[C@H](O)CC[C@]4(C)[C@H]3CC[C@]12C
maximum recommended daily dose (mmol/kg-bw/day) (TherapeuticCategory: anticholelithogenic): 0.0255

COc1ccc(NS(=O)(=O)c2ccc(N)cc2)nn1
maximum recommended daily dose (mmol/kg-bw/day) [1]: 0.0892

CCCCCCC(=O)OCCN1CCN(CCCN2c3ccccc3Sc3ccc(C(F)(F)F)cc32)CC1
maximum recommended daily dose (mmol/kg-bw/day) (TherapeuticCategory: antispsychotic): 0.000606

Cc1ccc(C(=O)c2cc(O)c(O)c([N+](=O)[O-])c2)cc1
maximum recommended daily dose (mmol/kg-bw/day) (TherapeuticCategory: antidepressant, catechol-O-methyltransferase inhibitor): 0.0122

CCOc1ccc(NC(C)=O)cc1
maximum recommended daily dose (mmol/kg-bw/day) (TherapeuticCategory: anticonvulsant, analgesic, antipyretic): 0.279

CCN(CC)CCOC(=O)C(Cc1cccc2ccccc12)CC1CCCO1 (stereo not given)
maximum recommended daily dose (mmol/kg-bw/day) [8]: 0.0261

c1ccc(CN(CC2=NCCN2)c2ccccc2)cc1
maximum recommended daily dose (mmol/kg-bw/day) [4]: 0.0188
